Data as given in paper PMC4018220 (Transplantation, 2014).
Like-named read-outs stand apart in the source and are kept apart here.

What was measured:
[1] = for Median [IQR] AUC: TAC, all weeks, dose and weight adjusted
[2] = cited from earlier work
clinical = conditions: human, in vivo

C=CC[C@@H]1/C=C(\C)C[C@H](C)C[C@H](OC)[C@H]2O[C@@](O)(C(=O)C(=O)N3CCCC[C@H]3C(=O)O[C@H](/C(C)=C/[C@@H]3CC[C@@H](O)[C@H](OC)C3)[C@H](C)[C@@H](O)CC1=O)[C@H](C)C[C@@H]2OC [TAC, tacrolimus]
Change in AUC over time ([1]; NNRTIs dosed with TAC): No change
Increase over time of dose and weight adjusted AUC ([1]; TAC given with protease inhibitors with or without NNRTIs): ~ 30%
Change of Tmax over time ([1]; TAC with NNRTIs alone): decreased
Change of Tmax over time ([1]; TAC with combination PI+NNRTIs): doubled
Median [IQR] AUC ([1]; +NNRTI): 3142 [2121-5157] ng*hr/mL/mg/kg
Median [IQR] AUC ([1]; +PI): 26889 [17208-42250] ng*hr/mL/mg/kg
Median [IQR] AUC ([1]; +PI/NNRTI): 12587 [8524-18780] ng*hr/mL/mg/kg
Median Tac Cx ([1]; W2, C0, NNRTI (n=4)): 199 ng/mL/mg/kg
Median Tac Cx ([1]; W2, C0, PI (n=4)): 963 ng/mL/mg/kg
Median Tac Cx ([1]; W2, C1, NNRTI (n=4)): 225 ng/mL/mg/kg
Median Tac Cx ([1]; W2, C1, PI (n=4)): 1045 ng/mL/mg/kg
Median Tac Cx ([1]; W2, C2, NNRTI (n=4)): 338 ng/mL/mg/kg
Median Tac Cx ([1]; W2, C2, PI (n=4)): 1687 ng/mL/mg/kg
Median Tac Cx ([1]; W2, C3, NNRTI (n=4)): 280 ng/mL/mg/kg
Median Tac Cx ([1]; W2, C3, PI (n=4)): 2325 ng/mL/mg/kg
Median Tac Cx ([1]; W2, C4, NNRTI (n=4)): 272 ng/mL/mg/kg
Median Tac Cx ([1]; W2, C4, PI (n=4)): 2332 ng/mL/mg/kg
Median Tac Cx ([1]; W12, C0, NNRTI (n=4)): 213 ng/mL/mg/kg
Median Tac Cx ([1]; W12, C0, PI (n=4)): 638 ng/mL/mg/kg
Median Tac Cx ([1]; W12, C1, NNRTI (n=4)): 420 ng/mL/mg/kg
Median Tac Cx ([1]; W12, C1, PI (n=4)): 1590 ng/mL/mg/kg
Median Tac Cx ([1]; W12, C2, NNRTI (n=4)): 368 ng/mL/mg/kg
Median Tac Cx ([1]; W12, C2, PI (n=4)): 2049 ng/mL/mg/kg
Median Tac Cx ([1]; W12, C3, NNRTI (n=4)): 290 ng/mL/mg/kg
Median Tac Cx ([1]; W12, C3, PI (n=4)): 2341 ng/mL/mg/kg
Median Tac Cx ([1]; W12, C4, NNRTI (n=4)): 296 ng/mL/mg/kg
Median Tac Cx ([1]; W12, C4, PI (n=4)): 2550 ng/mL/mg/kg
Median Tac Cx ([1]; W28, C0, NNRTI (n=3)): 193 ng/mL/mg/kg
Median Tac Cx ([1]; W28, C1, NNRTI (n=3)): 497 ng/mL/mg/kg
Median Tac Cx ([1]; W28, C2, NNRTI (n=3)): 368 ng/mL/mg/kg
Median Tac Cx ([1]; W28, C3, NNRTI (n=3)): 275 ng/mL/mg/kg
Median Tac Cx ([1]; W28, C4, NNRTI (n=3)): 223 ng/mL/mg/kg
Median Tac Cx ([1]; W52, C0, NNRTI (n=4)): 148 ng/mL/mg/kg
Median Tac Cx ([1]; W52, C1, NNRTI (n=4)): 301 ng/mL/mg/kg
Median Tac Cx ([1]; W52, C2, NNRTI (n=4)): 322 ng/mL/mg/kg
Median Tac Cx ([1]; W52, C3, NNRTI (n=4)): 242 ng/mL/mg/kg
Median Tac Cx ([1]; W52, C4, NNRTI (n=4)): 208 ng/mL/mg/kg
Association of higher TAC levels with new onset DM (OR) ([2]; HCV-positive liver transplant, p=0.12): 2.21
Correlation of higher TAC trough levels with rejection ([2]; NIH multicenter trial): decreased rejection rates
Tmax (clinical): 2 to 3 h
